Experimental data published in patent US10266495B2, “Phenyl quinolinone derivatives as mutant-isocitrate dehydrogenase inhibitors” (FORMA TM2, Inc., priority 2014, dated 2019).

Experiments:
[1] = target: IDH1-R132H recombinant protein (Homo sapiens, UniProt O75874, R132H); experiment: IDH1-R132H enzymatic assay (NADPH consumption, diaphorase/resazurin readout); type: biochemical; details: read-out: Enzyme IDH1 R132H IC50 Range
Procedure: (§1) Assays were performed in a 384-well black plate. An aliquot of 250 nL of compound was incubated with 10 μL of 30 nM IDH1-R132H or 10 nM IDH1-R132C recombinant protein in assay buffer (50 mM Tris pH=7.5, 150 mM NaCl, 5 mM MgCl2, 0.1% (w/v) Bovine Serum Albumin, and 0.01% Triton X-100) in each well at 25° C. for 15 minutes. After the plate was centrifuged briefly, an aliquot of 10 μL of 2 mM α-ketoglutarate and 20 μM NADPH solution prepared in assay buffer was then added to each well and the reaction was maintained at 25° C. for 45 minutes. An aliquot of 10 μL of diaphorase solution (0.15 U/mL diaphorase and 30 μM Resazurin in assay buffer) was added to each well. […] The IC50 of a given compound was calculated by fitting the dose response curve of inhibition of NADPH consumption at a given concentration with the four parameter logistic equation.

[2] = target: IDH1-R132C recombinant protein (Homo sapiens, UniProt O75874, R132C); experiment: IDH1-R132C enzymatic assay (NADPH consumption, diaphorase/resazurin readout); type: biochemical; details: read-out: Enzyme IDH1 R132C IC50 Range
Chain of IDH1-R132C recombinant protein (O75874 whole entry R132C): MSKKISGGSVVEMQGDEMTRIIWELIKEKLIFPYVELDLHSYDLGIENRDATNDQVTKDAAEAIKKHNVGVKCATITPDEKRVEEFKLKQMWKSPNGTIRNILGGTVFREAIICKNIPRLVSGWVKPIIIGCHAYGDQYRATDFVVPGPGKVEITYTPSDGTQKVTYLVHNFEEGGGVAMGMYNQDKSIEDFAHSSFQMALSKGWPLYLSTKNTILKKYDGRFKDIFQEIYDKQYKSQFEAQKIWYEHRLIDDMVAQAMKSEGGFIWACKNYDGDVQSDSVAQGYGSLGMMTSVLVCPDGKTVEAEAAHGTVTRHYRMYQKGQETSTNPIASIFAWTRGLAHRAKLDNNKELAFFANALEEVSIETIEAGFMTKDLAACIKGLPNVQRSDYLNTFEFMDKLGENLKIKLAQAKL
Procedure: as §1

Chain of IDH1-R132H recombinant protein (O75874 whole entry R132H): as the sequence (O75874 whole entry R132C) above, with C132H counted along it

Row | Structure (SMILES) | IC50 [1] [nM] | IC50 [2] [nM]
1 | Cc1nnnn1-c1ccc(NCc2cc3cc(Cl)ccc3[nH]c2=O)cc1 [Compound I-38, 6-chloro-3-({[4-(5-methyl-1H-1,2,3,4-tetrazol-1-yl)phenyl]amino}methyl)-1,2-dihydroquinolin-2-one] | 100 to 1000 | > 1000
2 | COc1cc(NCc2cc3cc(Cl)c(OCc4cc(C)n(C)n4)cc3[nH]c2=O)ccc1C#N [Compound I-70, 4-[({6-chloro-7-[(1,5-dimethyl-1H-pyrazol-3-yl)methoxy]-2-oxo-1,2-dihydroquinolin-3-yl}methyl)amino]-2-methoxybenzonitrile] | 10 to 100 | 100 to 1000
3 | COc1cc(NCc2cc3cc(Cl)c(OCC4CCCCN4C)cc3[nH]c2=O)ccc1C#N (stereo not drawn) [Compound I-72, 4-[({6-chloro-7-[(1-methylpiperidin-2-yl)methoxy]-2-oxo-1,2-dihydroquinolin-3-yl}methyl)amino]-2-methoxybenzonitrile] | 10 to 100 | > 1000
4 | COc1cc(NCc2cc3cc(Cl)c(OCc4nccn4C)cc3[nH]c2=O)ccc1C#N [Compound I-78, 4-[({6-chloro-7-[(1-methyl-1H-imidazol-2-yl)methoxy]-2-oxo-1,2-dihydroquinolin-3-yl}methyl)amino]-2-methoxybenzonitrile] | 10 to 100 | 100 to 1000
5 | COc1cc(NCc2cc3cc(C)ccc3[nH]c2=O)ccc1-n1cnnn1 [Compound I-16, 3-({[3-methoxy-4-(1H-1,2,3,4-tetrazol-1-yl)phenyl]amino}methyl)-6-methyl-1,2-dihydroquinolin-2-one] | 100 to 1000 | > 1000
6 | COc1cc(NCc2cc3cc(Cl)c(OCc4ccccc4)cc3[nH]c2=O)ccc1C#N [Compound I-71, 4-({[7-(benzyloxy)-6-chloro-2-oxo-1,2-dihydroquinolin-3-yl]methyl}amino)-2-methoxybenzonitrile] | 10 to 100 | > 1000
7 | COc1cc(NCc2cc3cc(Cl)c(OCC4CCOCC4)cc3[nH]c2=O)ccc1C#N [Compound I-63, 4-({[6-chloro-7-(oxan-4-ylmethoxy)-2-oxo-1,2-dihydroquinolin-3-yl]methyl}amino)-2-methoxybenzonitrile] | 10 to 100 | > 1000
8 | COc1cc(NCc2cc3cc(Cl)c(OCc4cnccn4)cc3[nH]c2=O)ccc1C#N [Compound I-76, 4-({[6-chloro-2-oxo-7-(pyrazin-2-ylmethoxy)-1,2-dihydroquinolin-3-yl]methyl}amino)-2-methoxybenzonitrile] | 10 to 100 | > 1000
9 | COc1cc(NCc2cc3cc(Cl)c(OCCN4CCCCC4)cc3[nH]c2=O)ccc1C#N [Compound I-87, 4-[({6-chloro-2-oxo-7-[2-(piperidin-1-yl)ethoxy]-1,2-dihydroquinolin-3-yl}methyl)amino]-2-methoxybenzonitrile] | 10 to 100 | > 1000
10 | COc1cc(NCc2cc3cc(Cl)c(OCCCN4CCCC4)cc3[nH]c2=O)ccc1C#N [Compound I-83, 4-[({6-chloro-2-oxo-7-[3-(pyrrolidin-1-yl)propoxy]-1,2-dihydroquinolin-3-yl}methyl)amino]-2-methoxybenzonitrile] | 10 to 100 | > 1000
11 | COc1cc(NCc2cc3cc(Cl)c(OCC(=O)N(C)C)cc3[nH]c2=O)ccc1C#N [Compound I-67, 2-[(6-chloro-3-{[(4-cyano-3-methoxyphenyl)amino]methyl}-2-oxo-1,2-dihydroquinolin-7-yl)oxy]-N,N-dimethylacetamide] | 10 to 100 | > 1000
12 | COc1cc(NCc2cc3cc(Cl)cc(OCc4ccccn4)c3[nH]c2=O)ccc1C#N [Compound I-98, 4-({[6-chloro-2-oxo-8-(pyridin-2-ylmethoxy)-1,2-dihydroquinolin-3-yl]methyl}amino)-2-methoxybenzonitrile] | 10 to 100 | > 1000
13 | COc1cc(NCc2cc3cc(Cl)c(OC4CCN(C)CC4)cc3[nH]c2=O)ccc1C#N [Compound I-66, 4-[({6-chloro-7-[(1-methylpiperidin-4-yl)oxy]-2-oxo-1,2-dihydroquinolin-3-yl}methyl)amino]-2-methoxybenzonitrile] | 10 to 100 | > 1000
14 | COc1cc(NCc2cc3cc(Cl)c(OCCc4ccncc4)cc3[nH]c2=O)ccc1C#N [Compound I-81, 4-[({6-chloro-2-oxo-7-[2-(pyridin-4-yl)ethoxy]-1,2-dihydroquinolin-3-yl}methyl)amino]-2-methoxybenzonitrile] | 10 to 100 | > 1000

The remaining lines, values ahead:

Row | IC50 [1] [nM] | IC50 [2] [nM] | Structure (SMILES)
15 | 10 to 100 | 100 to 1000 | COc1cc(NCc2cc3cc(Cl)c(OCCn4ccnc4C)cc3[nH]c2=O)ccc1C#N [Compound I-90, 4-[({6-chloro-7-[2-(2-methyl-1H-imidazol-1-yl)ethoxy]-2-oxo-1,2-dihydroquinolin-3-yl}methyl)amino]-2-methoxybenzonitrile]
16 | 100 to 1000 | > 1000 | COc1cc(NCc2cc3cc(Cl)cc(OCCN4CCCC4)c3[nH]c2=O)ccc1C#N [Compound I-100, 4-[({6-chloro-2-oxo-8-[2-(pyrrolidin-1-yl)ethoxy]-1,2-dihydroquinolin-3-yl}methyl)amino]-2-methoxybenzonitrile]
17 | 10 to 100 | > 1000 | COc1cc(NCc2cc3cc(C(F)(F)F)ccc3[nH]c2=O)ccc1C#N [Compound I-25, 2-methoxy-4-({[2-oxo-6-(trifluoromethyl)-1,2-dihydroquinolin-3-yl]methyl}amino)benzonitrile]
18 | > 1000 | > 1000 | COc1cc(NCc2cc3cc(F)ccc3[nH]c2=O)ccc1C#N [Compound I-27, 4-{[(6-fluoro-2-oxo-1,2-dihydroquinolin-3-yl)methyl]amino}-2-methoxybenzonitrile]
19 | 10 to 100 | > 1000 | COc1cc(NCc2cc3cc(Cl)c(OC[C@H]4CCOC4)cc3[nH]c2=O)ccc1C#N [Compound I-65, 4-[({6-chloro-2-oxo-7-[(3S)-oxolan-3-ylmethoxy]-1,2-dihydroquinolin-3-yl}methyl)amino]-2-methoxybenzonitrile]
20 | 100 to 1000 | > 1000 | COc1cc(NCc2cc3ccccc3[nH]c2=O)ccc1C#N [Compound I-47, 2-methoxy-4-{[(2-oxo-1,2-dihydroquinolin-3-yl)methyl]amino}benzonitrile]
21 | 100 to 1000 | > 1000 | COc1cc(NCc2cc3ccc(O)cc3[nH]c2=O)ccc1C#N [Compound I-30, 4-{[(7-hydroxy-2-oxo-1,2-dihydroquinolin-3-yl)methyl]amino}-2-methoxybenzonitrile]
22 | 10 to 100 | 100 to 1000 | COc1cc(NCc2cc3cc(Cl)c(OCc4ccccn4)cc3[nH]c2=O)ccc1C#N [Compound I-58, 4-({[6-chloro-2-oxo-7-(pyridin-2-ylmethoxy)-1,2-dihydroquinolin-3-yl]methyl}amino)-2-methoxybenzonitrile]
23 | 10 to 100 | > 1000 | COc1cc(NCc2cc3cc(C(C)(C)C)ccc3[nH]c2=O)ccc1C#N [Compound I-24, 4-{[(6-tert-butyl-2-oxo-1,2-dihydroquinolin-3-yl)methyl]amino}-2-methoxybenzonitrile]
24 | 100 to 1000 | > 1000 | N#Cc1ccc(NCc2cc3cc(Cl)ccc3[nH]c2=O)cc1O [Compound I-8, 4-{[(6-chloro-2-oxo-1,2-dihydroquinolin-3-yl)methyl]amino}-2-hydroxybenzonitrile]
25 | 10 to 100 | 10 to 100 | COc1cc(NC(C)c2cc3cc(Cl)ccc3[nH]c2=O)ccc1C#N (racemic) [Compound I-1, 4-{[1-(6-chloro-2-oxo-1,2-dihydroquinolin-3-yl)ethyl]amino}-2-methoxybenzonitrile]
26 | 10 to 100 | > 1000 | COc1cc(NCc2cc3cc(Cl)c(OC[C@@H]4CCCN4C)cc3[nH]c2=O)ccc1C#N [Compound I-94, 4-{[(6-chloro-7-{[(2S)-1-methylpyrrolidin-2-yl]methoxy}-2-oxo-1,2-dihydroquinolin-3-yl)methyl]amino}-2-methoxybenzonitrile]
27 | 10 to 100 | > 1000 | COc1cc(NCc2cc3cc(Cl)c(OCc4cccnc4)cc3[nH]c2=O)ccc1C#N [Compound I-62, 4-({[6-chloro-2-oxo-7-(pyridin-3-ylmethoxy)-1,2-dihydroquinolin-3-yl]methyl}amino)-2-methoxybenzonitrile]
28 | 10 to 100 | > 1000 | COc1cc(NCc2cc3cc(Cl)c(OCCN(C)C)cc3[nH]c2=O)ccc1C#N [Compound I-61, 4-[({6-chloro-7-[2-(dimethylamino)ethoxy]-2-oxo-1,2-dihydroquinolin-3-yl}methyl)amino]-2-methoxybenzonitrile]
29 | 100 to 1000 | > 1000 | COc1cc(NCc2cc3cc(Cl)c(OCc4ccncc4)cc3[nH]c2=O)ccc1C#N [Compound I-74, 4-({[6-chloro-2-oxo-7-(pyridin-4-ylmethoxy)-1,2-dihydroquinolin-3-yl]methyl}amino)-2-methoxybenzonitrile]
30 | 100 to 1000 | > 1000 | COc1cc(NCc2cc3ccc(C)cc3[nH]c2=O)ccc1-n1cnnn1 [Compound I-22, 3-({[3-methoxy-4-(1H-1,2,3,4-tetrazol-1-yl)phenyl]amino}methyl)-7-methyl-1,2-dihydroquinolin-2-one]
